Source: patent US10626112B2, “Heterocyclic sulfonamide derivative and medicine comprising same” (EA PHARMA CO., LTD., priority 2014, dated 2020)

These molecules were tested against human TRPA1 (Homo sapiens (Human), UniProt O75762) (assay: Measurement of TRPA1 antagonist activity (1): intracellular calcium increase). Conditions: 293T cells transfected with human TRPA1 expression plasmid; allylisothiocyanate 20 μM stimulation; intracellular calcium fluorescence; read-out: hTRPA1 IC50.
Assay type: cell-based
In short: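 HEK293T cells transiently transfected with full-length human TRPA1, loaded with Calcium4 dye in HBSS/20 mM HEPES pH 7.2. Test compound preincubated 10 min, then allylisothiocyanate added at 20 μM final and fluorescence change followed for 5 min. IC50 from sigmoid fit of percent inhibition relative to agonist and buffer controls.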

Sequence of human TRPA1 (O75762 whole entry): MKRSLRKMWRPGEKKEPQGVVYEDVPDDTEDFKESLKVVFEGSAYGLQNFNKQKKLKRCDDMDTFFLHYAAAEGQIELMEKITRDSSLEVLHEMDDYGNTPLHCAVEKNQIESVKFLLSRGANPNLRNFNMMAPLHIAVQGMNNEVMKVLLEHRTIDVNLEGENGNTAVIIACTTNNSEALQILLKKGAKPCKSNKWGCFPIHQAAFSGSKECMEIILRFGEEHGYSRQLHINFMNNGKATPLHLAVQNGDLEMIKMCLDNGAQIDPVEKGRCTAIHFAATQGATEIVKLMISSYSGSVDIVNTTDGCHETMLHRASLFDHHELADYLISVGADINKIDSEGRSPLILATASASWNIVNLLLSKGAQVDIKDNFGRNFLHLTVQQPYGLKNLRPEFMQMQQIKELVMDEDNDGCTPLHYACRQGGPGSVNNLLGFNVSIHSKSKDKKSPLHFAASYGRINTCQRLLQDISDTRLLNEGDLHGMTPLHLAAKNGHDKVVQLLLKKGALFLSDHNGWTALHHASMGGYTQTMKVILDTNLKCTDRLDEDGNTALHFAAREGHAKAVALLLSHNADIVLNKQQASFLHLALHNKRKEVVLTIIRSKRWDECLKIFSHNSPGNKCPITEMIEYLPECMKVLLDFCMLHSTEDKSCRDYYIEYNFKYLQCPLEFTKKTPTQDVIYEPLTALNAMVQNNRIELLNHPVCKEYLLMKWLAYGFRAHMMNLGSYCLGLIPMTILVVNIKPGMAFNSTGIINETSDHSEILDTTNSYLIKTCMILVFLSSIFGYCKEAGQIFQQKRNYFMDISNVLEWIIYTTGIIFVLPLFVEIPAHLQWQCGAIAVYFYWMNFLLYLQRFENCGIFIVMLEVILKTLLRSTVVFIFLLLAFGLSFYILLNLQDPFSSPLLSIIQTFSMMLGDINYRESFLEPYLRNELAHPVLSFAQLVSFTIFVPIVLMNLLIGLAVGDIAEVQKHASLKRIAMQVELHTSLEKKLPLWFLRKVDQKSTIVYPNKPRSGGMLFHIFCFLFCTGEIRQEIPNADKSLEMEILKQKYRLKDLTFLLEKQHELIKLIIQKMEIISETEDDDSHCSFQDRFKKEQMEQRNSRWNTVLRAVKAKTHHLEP

Going from O=C(NCc1ccc(-c2ccccc2C(F)(F)F)cc1)[C@@H]1CCCN1S(=O)(=O)c1cc2ccccc2o1 [Example 167, (2S)-1-(benzofuran-2-ylsulfonyl)-N-[[4-[2-(trifluoromethyl)phenyl]-phenyl]methyl]pyrrolidine-2-carboxamide] to C[C@H](NS(=O)(=O)c1cc2cc(F)ccc2o1)C(=O)NCc1cccc(OCc2ccc(C#N)cc2)c1 [Example 184, (2S)-N-[[3-[(4-cyanophenyl)methoxy]phenyl]methyl]-2-[(5-fluorobenzofuran-2-yl)sulfonylamino]propanamide], the IC50 falls from 140 nM to 41 nM (3.4-fold). The second is the more potent here.

Going from O=C(NCc1ccnc(-c2ccc(C(F)(F)F)cc2O)c1)[C@@H]1CCCN1S(=O)(=O)c1cc2cc(F)ccc2o1 [Example 138, (2S)-1-(5-fluorobenzofuran-2-yl)sulfonyl-N-[[2-[2-hydroxy-4-(trifluoromethyl)phenyl]-4-pyridyl]methyl]pyrrolidine-2-carboxamide] to O=C(NCc1cccc(/C=C/c2ccc(C(F)(F)F)cc2)c1)[C@@H]1CCCN1S(=O)(=O)c1cc2cc(F)ccc2o1 [Example 297, (2S)-1-(5-fluorobenzofuran-2-yl)sulfonyl-N-[[3-[(E)-2-[4-(trifluoromethyl)phenyl]vinyl]phenyl]methyl]pyrrolidine-2-carboxamide], the IC50 rises from 0.97 nM to 7.5 nM (7.7-fold).

Compared with O=C(NCc1cccc(OCc2ccc(C(F)(F)F)cc2)c1)[C@@H]1[C@@H](O)CCN1S(=O)(=O)c1cc2ccccc2o1 [Example 45, (2S,3S)-1-(benzofuran-2-ylsulfonyl)-3-hydroxy-N-[[3-[[4-(trifluoromethyl)phenyl]methoxy]-phenyl]methyl]pyrrolidine-2-carboxamide], “(2S)-1-(5-fluorobenzofuran-2-yl)sulfonyl-N-[[3-[[4-(trifluoromethyl)phenyl]methoxy]-phenyl]methyl]pyrrolidine-2-carboxamide [Example 41]” is 27-fold lower in IC50: 35 nM for the first, 1.3 nM for the second. The second is the more potent here.

Going from O=C(NCc1cccc(OCc2cccnc2)c1)[C@@H]1CCCN1S(=O)(=O)c1cc2ccccc2o1 [Example 3, (2S)-1-(benzofuran-2-ylsulfonyl)-N-[[3-(3-pyridylmethoxy)phenyl]methyl]pyrrolidine-2-carboxamide] to O=C(NCc1ccc(F)c(-c2ccc(C(F)(F)F)cc2)c1)[C@@H]1CCCN1S(=O)(=O)c1cc2ccccc2o1 [Example 307, (2S)-1-(benzofuran-2-ylsulfonyl)-N-[[4-fluoro-3-[4-(trifluoromethyl)phenyl]phenyl]methyl]pyrrolidine-2-carboxamide], the IC50 falls from 72 nM to 1.7 nM (42-fold).

First: C[C@H](NS(=O)(=O)c1cc2cc(F)ccc2o1)C(=O)NCc1ccnc(-c2ccc(C(F)(F)F)cc2O)c1 [Example 181, (2S)-2-[(5-fluorobenzofuran-2-yl)sulfonylamino]-N-[[2-[2-hydroxy-4-(trifluoromethyl)phenyl]-4-pyridyl]methyl]propanamide]
Second: O=C(NCc1ccnc(-c2cnc(C(F)(F)F)nc2)c1)[C@@H]1CCCN1S(=O)(=O)c1cc2ccccc2o1 [Example 199, (2S)-1-(benzofuran-2-ylsulfonyl)-N-[[2-[2-(trifluoromethyl)pyrimidin-5-yl]-4-pyridyl]methyl]pyrrolidine-2-carboxamide]
The IC50 of the first is 4.2-fold higher: 21 nM for the first, 5 nM for the second.

Compared with O=C(NCc1ccnc(-c2ccc(F)cc2)c1)[C@@H]1CCCN1S(=O)(=O)c1cc2ccccc2o1 [Example 114, (2S)-1-(benzofuran-2-ylsulfonyl)-N-[[2-(4-fluorophenyl)-4-pyridyl]methyl]pyrrolidine-2-carboxamide], COc1c(F)ccc(CNC(=O)[C@@H]2CCCN2S(=O)(=O)c2cc3ccccc3o2)c1F [Example 68, (2S)-1-(benzofuran-2-ylsulfonyl)-N-[(2,4-difluoro-3-methoxy-phenyl)methyl]pyrrolidine-2-carboxamide] is 12-fold higher in IC50: 32 nM for the first, 390 nM for the second. The first is the more potent here.

In the case of C[C@H](NS(=O)(=O)c1cc2cc(F)ccc2o1)C(=O)NCc1ccnc(-c2cnc(C(F)(F)F)nc2)c1 [Example 238, (2S)-2-[(5-fluorobenzofuran-2-yl)sulfonylamino]-N-[[2-[2-(trifluoromethyl)pyrimidin-5-yl]-4-pyridyl]methyl]propanamide], the IC50 is reported as 42 nM.
